# What was measured:
# Assay type in all cases: biochemical
# ITK = ITK (Homo sapiens (Human), UniProt Q08881); experiment: IC50 against ITK
# TXK = TXK (Homo sapiens (Human), UniProt P42681); experiment: IC50 against TXK; details: for TXK/ITK: ratio of TXK IC50 to ITK IC50
# BTK = BTK (Homo sapiens (Human), UniProt Q06187); experiment: IC50 against BTK
# JAK3 = JAK3 (Homo sapiens (Human), UniProt P52333); experiment: IC50 against JAK3
# Chain of JAK3 (P52333 whole entry, species assumed): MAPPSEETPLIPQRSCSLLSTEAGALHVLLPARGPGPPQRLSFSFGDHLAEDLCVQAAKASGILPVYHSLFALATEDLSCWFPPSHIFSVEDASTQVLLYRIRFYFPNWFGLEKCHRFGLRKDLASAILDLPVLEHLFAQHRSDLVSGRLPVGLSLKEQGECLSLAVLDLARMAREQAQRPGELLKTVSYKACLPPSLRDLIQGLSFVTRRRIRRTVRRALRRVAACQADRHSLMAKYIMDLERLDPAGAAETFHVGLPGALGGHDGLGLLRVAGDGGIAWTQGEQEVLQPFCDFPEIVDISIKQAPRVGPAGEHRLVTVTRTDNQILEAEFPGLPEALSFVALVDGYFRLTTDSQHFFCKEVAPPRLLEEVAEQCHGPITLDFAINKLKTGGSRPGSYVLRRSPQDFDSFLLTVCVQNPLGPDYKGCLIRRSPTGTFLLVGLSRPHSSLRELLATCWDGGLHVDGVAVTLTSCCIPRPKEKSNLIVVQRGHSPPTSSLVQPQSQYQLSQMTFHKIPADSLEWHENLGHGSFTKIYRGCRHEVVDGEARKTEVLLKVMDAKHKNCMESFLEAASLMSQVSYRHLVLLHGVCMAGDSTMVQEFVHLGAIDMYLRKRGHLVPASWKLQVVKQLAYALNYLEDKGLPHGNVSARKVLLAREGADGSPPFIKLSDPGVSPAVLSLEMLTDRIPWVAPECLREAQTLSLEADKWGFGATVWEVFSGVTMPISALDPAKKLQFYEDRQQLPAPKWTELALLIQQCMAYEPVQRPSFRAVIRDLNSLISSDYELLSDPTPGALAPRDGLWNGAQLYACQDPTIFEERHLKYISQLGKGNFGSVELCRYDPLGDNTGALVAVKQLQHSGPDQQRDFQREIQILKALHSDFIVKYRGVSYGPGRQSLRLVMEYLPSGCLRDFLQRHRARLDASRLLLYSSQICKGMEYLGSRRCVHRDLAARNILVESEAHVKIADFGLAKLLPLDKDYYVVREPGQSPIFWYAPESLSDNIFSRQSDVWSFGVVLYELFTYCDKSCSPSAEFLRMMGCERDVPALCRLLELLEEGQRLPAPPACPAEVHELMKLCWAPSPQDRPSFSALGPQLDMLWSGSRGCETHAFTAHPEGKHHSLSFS
# Chain of TXK (P42681 whole entry, species assumed): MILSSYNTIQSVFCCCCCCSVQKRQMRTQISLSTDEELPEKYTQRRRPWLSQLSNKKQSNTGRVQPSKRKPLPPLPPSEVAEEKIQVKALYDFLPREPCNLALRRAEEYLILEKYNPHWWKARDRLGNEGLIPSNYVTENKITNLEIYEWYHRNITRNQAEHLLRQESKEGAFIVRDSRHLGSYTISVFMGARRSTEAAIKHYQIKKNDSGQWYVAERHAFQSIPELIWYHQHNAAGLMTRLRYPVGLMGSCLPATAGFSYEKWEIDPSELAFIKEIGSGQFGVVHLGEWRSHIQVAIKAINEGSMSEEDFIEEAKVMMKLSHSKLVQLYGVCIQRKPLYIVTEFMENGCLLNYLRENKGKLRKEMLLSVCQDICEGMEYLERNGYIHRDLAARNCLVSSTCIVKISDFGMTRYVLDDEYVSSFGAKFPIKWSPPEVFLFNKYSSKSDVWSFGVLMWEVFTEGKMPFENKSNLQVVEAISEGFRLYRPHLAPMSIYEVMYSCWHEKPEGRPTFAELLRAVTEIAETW
# Chain of ITK (Q08881 whole entry): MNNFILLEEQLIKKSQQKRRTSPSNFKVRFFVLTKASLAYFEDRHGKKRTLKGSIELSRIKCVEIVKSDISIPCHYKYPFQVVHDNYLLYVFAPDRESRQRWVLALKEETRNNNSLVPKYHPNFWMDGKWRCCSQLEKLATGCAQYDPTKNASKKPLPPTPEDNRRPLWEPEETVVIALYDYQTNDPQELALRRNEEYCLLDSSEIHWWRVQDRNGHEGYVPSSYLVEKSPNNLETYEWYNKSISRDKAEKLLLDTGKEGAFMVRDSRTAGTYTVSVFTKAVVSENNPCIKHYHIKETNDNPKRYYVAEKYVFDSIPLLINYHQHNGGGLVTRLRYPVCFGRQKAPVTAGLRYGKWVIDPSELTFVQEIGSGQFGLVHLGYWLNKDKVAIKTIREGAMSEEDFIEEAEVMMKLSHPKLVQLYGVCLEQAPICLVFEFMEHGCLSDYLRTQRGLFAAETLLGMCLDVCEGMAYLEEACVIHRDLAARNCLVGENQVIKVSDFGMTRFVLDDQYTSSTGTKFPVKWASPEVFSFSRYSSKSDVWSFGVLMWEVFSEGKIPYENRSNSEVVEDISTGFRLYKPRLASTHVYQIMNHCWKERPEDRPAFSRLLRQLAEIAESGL
# Chain of BTK (Q06187 whole entry, species assumed): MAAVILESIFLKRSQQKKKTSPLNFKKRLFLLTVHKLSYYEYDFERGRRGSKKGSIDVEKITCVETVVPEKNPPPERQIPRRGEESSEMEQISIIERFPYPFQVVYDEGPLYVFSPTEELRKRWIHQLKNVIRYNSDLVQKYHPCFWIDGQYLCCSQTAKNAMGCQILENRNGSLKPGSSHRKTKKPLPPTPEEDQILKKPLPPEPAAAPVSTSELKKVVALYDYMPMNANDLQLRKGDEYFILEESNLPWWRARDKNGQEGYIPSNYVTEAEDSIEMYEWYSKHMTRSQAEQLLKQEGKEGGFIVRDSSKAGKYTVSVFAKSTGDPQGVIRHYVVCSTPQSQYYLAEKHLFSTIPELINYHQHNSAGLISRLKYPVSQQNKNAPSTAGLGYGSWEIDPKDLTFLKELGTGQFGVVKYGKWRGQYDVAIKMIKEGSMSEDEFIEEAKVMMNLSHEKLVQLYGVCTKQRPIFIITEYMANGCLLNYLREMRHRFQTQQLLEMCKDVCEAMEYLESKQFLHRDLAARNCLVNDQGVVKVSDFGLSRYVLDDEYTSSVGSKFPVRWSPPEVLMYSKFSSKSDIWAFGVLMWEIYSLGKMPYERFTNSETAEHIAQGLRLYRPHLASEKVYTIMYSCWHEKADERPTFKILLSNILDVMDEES
IC50 (ITK),IC50 (TXK),TXK/ITK (TXK),IC50 (BTK),IC50 (JAK3),SMILES
< 10 nM,100 to 1000 nM,70.047,100 to 1000 nM,100 to 1000 nM,C=CC(=O)N1CCN(C(=O)c2cc(Sc3cnc(NC(=O)c4cccc(CN(C)C)c4)s3)c(C)cc2OC)CC(F)C1 (centres unmarked) [Compound 66]
≥ 10000 nM,1000 to 10000 nM,0.634,≥ 10000 nM,1000 to 10000 nM,C=CC(=O)N1CCN(C(=O)c2cc(Sc3cnc(NC4CC4)s3)c(C)cc2OC)CC1 [Compound 67]
10 to 100 nM,100 to 1000 nM,3.6548,≥ 10000 nM,1000 to 10000 nM,C=CC(=O)N1CCN(C(=O)c2cc(Sc3cnc(NC(=O)C4CC4)s3)c(C)cc2C(F)(F)F)CC1 [Compound 68]
100 to 1000 nM,100 to 1000 nM,4.9369,≥ 10000 nM,1000 to 10000 nM,C=CC(=O)N1CCN(C(=O)c2cc(Sc3cnc(NC(=O)C4CC4)s3)c(C)cc2C(F)(F)F)C[C@H]1C [Compound 69]
10 to 100 nM,1000 to 10000 nM,35.68,≥ 10000 nM,≥ 10000 nM,C=CC(=O)N1CCCN(C(=O)c2cc(Sc3cnc(NC(=O)C4CC4)s3)c(C)cc2C(F)(F)F)C[C@H]1C [Compound 70]
100 to 1000 nM,1000 to 10000 nM,1.1846,≥ 10000 nM,≥ 10000 nM,C=CC(=O)N1CCCN(C(=O)c2cc(Sc3cnc(NC(=O)C4CC4)s3)c(C)cc2OC)[C@@H](C)C1 [Compound 72]
< 10 nM,10 to 100 nM,3.2627,100 to 1000 nM,100 to 1000 nM,C=CC(=O)N1CCN(C(=O)c2cc(Sc3cnc(NC(=O)C4CC4)s3)c(C)cc2C)CC1 [Compound 73]
< 10 nM,100 to 1000 nM,16.033,100 to 1000 nM,100 to 1000 nM,C=CC(=O)N1CCCN(C(=O)c2cc(Sc3cnc(NC(=O)C4CC4)s3)c(C)cc2C)CC1 [Compound 74]
≥ 10000 nM,≥ 10000 nM,1,≥ 10000 nM,≥ 10000 nM,C=CC(=O)N1CCN(C(=O)c2cc(Sc3cnc(NC(=O)C4CC4)s3)c(C)cn2)CC1 [Compound 76]
10 to 100 nM,1000 to 10000 nM,95.398,≥ 10000 nM,1000 to 10000 nM,C=CC(=O)N1CCCN(C(=O)c2cc(Sc3cnc(NC(=O)C4CC4)s3)ccc2OC)C[C@H]1C [Compound 77]
< 10 nM,10 to 100 nM,10.586,100 to 1000 nM,100 to 1000 nM,C=CC(=O)N1CCN(C(=O)c2cc(Sc3cnc(NC(=O)C4CC4)s3)ccc2OC)CC1 [Compound 78]
10 to 100 nM,100 to 1000 nM,21.331,≥ 10000 nM,100 to 1000 nM,C=CC(=O)N1CCN(C(=O)c2cc(Sc3cnc(NC(=O)C4CC4)s3)ccc2OC)C[C@H]1C [Compound 79]
< 10 nM,10 to 100 nM,8.1619,100 to 1000 nM,10 to 100 nM,C=CC(=O)N1CCN(C(=O)c2cc(Sc3cnc(NC(=O)C4CC4)s3)c(Cl)cc2C)CC1 [Compound 80]
< 10 nM,100 to 1000 nM,19.042,1000 to 10000 nM,100 to 1000 nM,C=CC(=O)N1CCN(C(=O)c2cc(Sc3cnc(NC(=O)C4CC4)s3)c(Cl)cc2C)C[C@H]1C [Compound 81]
10 to 100 nM,100 to 1000 nM,9.2468,≥ 10000 nM,100 to 1000 nM,C=CC(=O)N1CCN(C(=O)c2cc(Sc3cnc(NC(=O)C4CC4)s3)c(F)cc2C)C[C@H]1C [Compound 82]
10 to 100 nM,1000 to 10000 nM,45.317,≥ 10000 nM,1000 to 10000 nM,C=CC(=O)N1CCCN(C(=O)c2cc(Sc3cnc(NC(=O)C4CC4)s3)c(F)cc2C)C[C@H]1C [Compound 83]
< 10 nM,10 to 100 nM,21.948,1000 to 10000 nM,1000 to 10000 nM,C=CC(=O)N1CCN(C(=O)c2cc(Sc3cnc(NC(=O)C4CCC4)s3)c(C)cc2OC)CC1 [Compound 84]
< 10 nM,10 to 100 nM,33.582,100 to 1000 nM,100 to 1000 nM,C=CC(=O)N1CCN(C(=O)c2cc(Sc3cnc(NC(=O)c4cnsc4)s3)c(C)cc2OC)CC1 [Compound 85]
10 to 100 nM,1000 to 10000 nM,227.64,≥ 10000 nM,≥ 10000 nM,C=CC(=O)N1CCCN(C(=O)c2cc(Sc3cnc(NC(=O)C4CCC4)s3)c(C)cc2OC)C[C@H]1C [Compound 86]
< 10 nM,100 to 1000 nM,74.161,100 to 1000 nM,1000 to 10000 nM,C=CC(=O)N1CCN(C(=O)c2cc(Sc3cnc(NC(=O)c4ccncc4)s3)c(C)cc2OC)CC1 [Compound 87]

IC50 (ITK),IC50 (TXK),TXK/ITK (TXK),IC50 (BTK),IC50 (JAK3),SMILES
100 to 1000 nM,≥ 10000 nM,30.436,≥ 10000 nM,≥ 10000 nM,C=C(CN(C)C)C(=O)N1CCCN(C(=O)c2cc(Sc3cnc(NC(=O)C4CC4)s3)c(C)cc2OC)C[C@H]1C [Compound 88]
< 10 nM,100 to 1000 nM,45.743,100 to 1000 nM,1000 to 10000 nM,C=CC(=O)N1CCN(C(=O)c2cc(Sc3cnc(NC(=O)c4cccnc4)s3)c(C)cc2OC)CC1 [Compound 89]
< 10 nM,10 to 100 nM,20.093,10 to 100 nM,100 to 1000 nM,C=CC(=O)N1CCN(C(=O)c2cc(Sc3cnc(NC(=O)c4cnn(C)c4)s3)c(C)cc2OC)CC1 [Compound 91]
< 10 nM,100 to 1000 nM,19.123,100 to 1000 nM,100 to 1000 nM,C=CC(=O)N1CCN(C(=O)c2cc(Sc3cnc(NC(=O)c4cocn4)s3)c(C)cc2OC)CC1 [Compound 92]
< 10 nM,100 to 1000 nM,252.91,1000 to 10000 nM,≥ 10000 nM,C=CC(=O)N1CCCN(C(=O)c2cc(Sc3cnc(NC(=O)c4cnsc4)s3)c(C)cc2OC)C[C@H]1C [Compound 93]
100 to 1000 nM,≥ 10000 nM,61.81,≥ 10000 nM,≥ 10000 nM,COc1cc(C)c(Sc2cnc(NC(=O)C3CC3)s2)cc1C(=O)N1CCCN(C(=O)/C=C/CN(C)C)[C@H](C)C1 [Compound 94]
10 to 100 nM,100 to 1000 nM,14.201,100 to 1000 nM,1000 to 10000 nM,C=CC(=O)N1CCN(C(=O)c2cc(Sc3cnc(NC(=O)c4ccccn4)s3)c(C)cc2OC)CC1 [Compound 95]
< 10 nM,10 to 100 nM,11.966,100 to 1000 nM,100 to 1000 nM,C=CC(=O)N1CCN(C(=O)c2cc(Sc3cnc(NC(=O)c4nccn4C)s3)c(C)cc2OC)CC1 [Compound 96]
< 10 nM,100 to 1000 nM,12.995,100 to 1000 nM,1000 to 10000 nM,C=CC(=O)N1CCN(C(=O)c2cc(Sc3cnc(NC(=O)c4cn(C)cn4)s3)c(C)cc2OC)CC1 [Compound 97]
< 10 nM,< 10 nM,8.2157,< 10 nM,10 to 100 nM,C=CC(=O)N1CCN(C(=O)c2cc(Sc3cnc(Nc4ccccn4)s3)c(C)cc2OC)CC1 [Compound 98]
10 to 100 nM,10 to 100 nM,4.279,1000 to 10000 nM,100 to 1000 nM,C=CC(=O)N1CCN(C(=O)c2cc(Sc3cnc(NC(=O)C4CC4)s3)c(C)cc2Cl)C[C@H]1CC [Compound 99]
< 10 nM,10 to 100 nM,8.8107,1000 to 10000 nM,100 to 1000 nM,C=CC(=O)N1CCN(C(=O)c2cc(Sc3cnc(NC(=O)C4CC4)s3)c(C)cc2C)C[C@H]1CC [Compound 100]
10 to 100 nM,100 to 1000 nM,14.4,≥ 10000 nM,100 to 1000 nM,C=CC(=O)N1CCN(C(=O)c2cc(Sc3cnc(NC(=O)C4CC4)s3)c(Cl)cc2C)C[C@H]1CC [Compound 101]
< 10 nM,10 to 100 nM,32.9,10 to 100 nM,100 to 1000 nM,C=CC(=O)N1CCN(C(=O)c2cc(Sc3cnc(NC(=O)c4cnn(CCN(C)C)c4)s3)c(C)cc2OC)CC1 [Compound 102]
< 10 nM,10 to 100 nM,47.6,100 to 1000 nM,100 to 1000 nM,C=CC(=O)N1CCCN(C(=O)c2cc(Sc3cnc(Nc4ccccn4)s3)c(C)cc2OC)C[C@H]1C [Compound 103]
< 10 nM,10 to 100 nM,3.6,100 to 1000 nM,100 to 1000 nM,C=CC(=O)N1CCN(C(=O)c2cc(Sc3cnc(NC(=O)C4CC4)s3)c(C)cc2CC)C[C@H]1CC [Compound 104]
< 10 nM,100 to 1000 nM,12.3,100 to 1000 nM,1000 to 10000 nM,C=CC(=O)N1CCCN(C(=O)c2cc(Sc3cnc(NC(=O)C4CC4)s3)c(C)cc2CC)C[C@H]1C [Compound 105]
< 10 nM,< 10 nM,2.9,10 to 100 nM,10 to 100 nM,C=CC(=O)N1CCN(C(=O)c2cc(Sc3cnc(NC(=O)C4CC4)s3)c(C)cc2CC)CC1 [Compound 106]
< 10 nM,10 to 100 nM,61.8,100 to 1000 nM,100 to 1000 nM,C=CC(=O)N1CCN(C(=O)c2cc(Sc3cnc(NC(=O)c4cccc(CN(C)C)c4)s3)c(C)cc2C)CC1 [Compound 107]
< 10 nM,10 to 100 nM,12.1,100 to 1000 nM,100 to 1000 nM,C=CC(=O)N1CCN(C(=O)c2cc(Sc3cnc(NC(=O)c4cnn(C)c4)s3)c(C)cc2C)CC1 [Compound 108]
